From patent publication US20250122191A1, “COMPOUNDS AS BCL-2 INHIBITORS” (Fochon Biosciences, Ltd, priority 2021, published 2025)

Key:
Type in all cases: cell-based
RS4;11-BCL-2 G101V cells = assay: Cell proliferation assay (MTS), RS4;11-BCL-2 G101V engineered cells; settings: Homo sapiens, 120 h, read-out: RS4, 11 BCL2-G101V IC50
Summary of the method: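 RS4;11 cells stably overexpressing mutant BCL-2 were seeded and pre-incubated 4 h (G101V, F104L) or 24 h (D103E, D103Y), then exposed to compound at 1.5–10000 nM for 120 h (G101V, F104L) or 72 h (D103E, D103Y) at 37 °C. Viability was read by MTS absorbance at 490 nm after 2 h; IC50 fitted.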

RS4;11-BCL-2 F104L cells = assay: Cell proliferation assay (MTS), RS4;11-BCL-2 F104L engineered cells; settings: Homo sapiens, 120 h, read-out: RS4, 11 BCL2-F104L IC50
From the text: MTS testing kit was purchased from Promega (Madison, WI, USA). The RPMI-1640, Fetal bovine serum and Penicillin-Streptomycin were purchased from BI (Biological Industries, Beit Haemek, Israel). Puromycin was purchased from Beyotime (shanghai, China). Dimethyl sulfoxide (DMSO) was purchased from Sigma (St. Louis., MO, USA). RS4;11-BCL-2 G101V (Cobioer Lot. #: CBD2021063013P4), RS4;11-BCL-2 D103E (Cobioer Lot. #: CBD2021063013P4), RS4;11-BCL-2 D103Y (Cobioer Lot. #: CBD2022012101P4) and RS4;11-BCL-2 F104L (Cobioer Lot. #: CBD2021063014P4) cells were cultured in RPMI1640 supplemented with 1 ug/mL puromycin, 100 U/mL Penicillin-Streptomycin and 10% FBS.
To investigate whether a compound is able to inhibit the activity of BCL-2 mutation in cells, a mechanism-based assay using engineered cell lines stably overexpressing BCL-2 mutation (RS4;11-BCL-2 G101V, RS4;11-BCL-2 D103E, RS4;11-BCL-2 D103Y, and RS4;11-BCL-2 F104L) was developed. In this assay, the inhibition of BCL-2 mutation was reflected by the inhibition of cell proliferation of engineered RS4;11 cells. Cells were plated into 96-well plates at optimized cell density (RS4;11-BCL-2 G101V: 5000 cells/well; RS4;11-BCL-2 D103E: 7500 cells/well; RS4;11-BCL-2 D103Y: 7500 cells/well; RS4;11-BCL-2 F104L: 5000 cells/well). Plates were incubated at 37° C., with 5% CO2 for 4 h (RS4;11-BCL-2 G101V, RS4;11-BCL-2 F104L) and 24 h (RS4;11-BCL-2 D103E, RS4;11-BCL-2 D103Y), respectively. Compounds were serially diluted and added to the plates with the final concentrations of 10000, 3333.3, 1111.1, 370.4, 123.5, 41.2, 13.7, 4.6 and 1.5 nM. Plates were incubated at 37° C., with 5% CO2 for 120 h (RS4; 11-BCL-2 G101V, RS4; 11-BCL-2 F104L) and 72 h (RS4;11-BCL-2 D103E, RS4;11-BCL-2 D103Y), respectively. 20 μl MTS was added into each well and the plates were incubated at 37° C., with 5% CO2 exactly for 2 h. The absorbance was measured by a microplate reader at 490 nm. IC50 values were calculated using GraphPad Prism 8.0 software.

Toledo cells = assay: Cell proliferation assay (MTS), Toledo cells; settings: Homo sapiens, 72 h
Summary of the method: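 Toledo cells (RPMI-1640, 10% FBS) seeded at 30000 cells/well, rested 4 h, then exposed 72 h at 37 °C, 5% CO2 to compound at nine final concentrations, 1.5–10000 nM. Viability by MTS (2 h), absorbance at 490 nm. IC50 from the concentration-response.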

IC50 (RS4;11-BCL-2 G101V cells) [nM]	IC50 (RS4;11-BCL-2 F104L cells) [nM]	Structure (SMILES)	IC50 (Toledo cells) [nM]
1	1	COc1nc2[nH]cc(F)c2cc1Oc1cc(N2CCC3(CC2)CC(N2CCC[C@H]2c2ccccc2C(C)C)C3)ccc1C(=O)NS(=O)(=O)c1cnc(NC[C@H]2CC[C@](C)(O)CC2)c([N+](=O)[O-])c1 [Example 89, 2-((3-fluoro-6-methoxy-1H-pyrrolo[2,3-b]pyridin-5-yl)oxy)-N-((6-((((1r,4r)-4-hydroxy-4-methylcyclohexyl)methyl)amino)-5-nitropyridin-3-yl)sulfonyl)-4-(2-((S)-2-(2-isopropylphenyl)pyrrolidin-1-yl)-7-azaspiro[3.5]nonan-7-yl)benzamide]	–
–	1	COc1ccc(CN2CCN(C3CC4(CCN(c5ccc(C(=O)NS(=O)(=O)c6cnc(NC[C@H]7CC[C@](C)(O)CC7)c([N+](=O)[O-])c6)c(Oc6cc7c(F)c[nH]c7nc6OC)c5)CC4)C3)[C@H](c3ccccc3C(C)C)C2)cc1F [Example 97, 4-(2-((R)-4-(3-fluoro-4-methoxybenzyl)-2-(2-isopropylphenyl)piperazin-1-yl)-7-azaspiro[3.5]nonan-7-yl)-2-((3-fluoro-6-methoxy-1H-pyrrolo[2,3-b]pyridin-5-yl)oxy)-N-((6-((((1r,4r)-4-hydroxy-4-methylcyclohexyl)methyl)amino)-5-nitropyridin-3-yl)sulfonyl)benzamide]	1
–	1	COc1cc(CN2CCN(C3CC4(CCN(c5ccc(C(=O)NS(=O)(=O)c6cnc(NC[C@H]7CC[C@](C)(O)CC7)c([N+](=O)[O-])c6)c(Oc6cc7c(F)c[nH]c7nc6OC)c5)CC4)C3)[C@H](c3ccccc3C(C)C)C2)cc2c1OCCC2 [Example 103, 2-((3-fluoro-6-methoxy-1H-pyrrolo[2,3-b]pyridin-5-yl)oxy)-N-((6-((((1r,4r)-4-hydroxy-4-methylcyclohexyl)methyl)amino)-5-nitropyridin-3-yl)sulfonyl)-4-(2-((R)-2-(2-isopropylphenyl)-4-((8-methoxychroman-6-yl)methyl)piperazin-1-yl)-7-azaspiro[3.5]nonan-7-yl)benzamide]	1
–	1	COc1nc2[nH]cc(F)c2cc1Oc1cc(N2CCC3(CC2)CC(N2CCN(Cc4ccc(S(C)(=N)=O)cc4)C[C@H]2c2ccccc2C(C)C)C3)ccc1C(=O)NS(=O)(=O)c1cnc(NC[C@H]2CC[C@](C)(O)CC2)c([N+](=O)[O-])c1 (stereo partly drawn) [Example 336, 2-((3-fluoro-6-methoxy-1H-pyrrolo[2,3-b]pyridin-5-yl)oxy)-N-((6-((((1r,4r)-4-hydroxy-4-methylcyclohexyl)methyl)amino)-5-nitropyridin-3-yl)sulfonyl)-4-(2-((2R)-2-(2-isopropylphenyl)-4-(4-(S-methylsulfonimidoyl)benzyl)piperazin-1-yl)-7-azaspiro[3.5]nonan-7-yl)benzamide]	1
–	3	COc1nc2[nH]cc(F)c2cc1Oc1cc(N2CCC3(CC2)CC(N2CCN(Cc4ccnc(Cl)c4)C[C@H]2c2ccccc2C(C)C)C3)ccc1C(=O)NS(=O)(=O)c1cnc(NC[C@H]2CC[C@](C)(O)CC2)c([N+](=O)[O-])c1 [Example 357, 4-(2-((R)-4-((2-chloropyridin-4-yl)methyl)-2-(2-isopropylphenyl)piperazin-1-yl)-7-azaspiro[3.5]nonan-7-yl)-2-((3-fluoro-6-methoxy-1H-pyrrolo[2,3-b]pyridin-5-yl)oxy)-N-((6-((((1r,4r)-4-hydroxy-4-methylcyclohexyl)methyl)amino)-5-nitropyridin-3-yl)sulfonyl)benzamide]	1

Second part, the compound before the results:

Structure (SMILES)	IC50 (RS4;11-BCL-2 G101V cells) [nM]	IC50 (RS4;11-BCL-2 F104L cells) [nM]	IC50 (Toledo cells) [nM]
CCOc1nc2[nH]cc(F)c2cc1Oc1cc(N2CCC3(CC2)CC(N2CCN(Cc4ccc(C5CC5)c(OC)c4)C[C@H]2c2ccccc2C(C)C)C3)ccc1C(=O)NS(=O)(=O)c1cnc(NC[C@H]2CC[C@](C)(O)CC2)c([N+](=O)[O-])c1 [Example 6, 4-(2-((R)-4-(4-cyclopropyl-3-methoxybenzyl)-2-(2-isopropylphenyl)piperazin-1-yl)-7-azaspiro[3.5]nonan-7-yl)-2-((6-ethoxy-3-fluoro-1H-pyrrolo[2,3-b]pyridin-5-yl)oxy)-N-((6-((((1r,4r)-4-hydroxy-4-methylcyclohexyl)methyl)amino)-5-nitropyridin-3-yl)sulfonyl)benzamide]	1	1	1
COc1cc(CN2CCN(C3CC4(CCN(c5ccc(C(=O)NS(=O)(=O)c6cnc(NC[C@H]7CC[C@](C)(O)CC7)c([N+](=O)[O-])c6)c(Oc6cc7c(F)c[nH]c7nc6OC)c5)CC4)C3)[C@H](c3ccccc3C(C)C)C2)cc(SC)n1 [Example 63, 2-((3-fluoro-6-methoxy-1H-pyrrolo[2,3-b]pyridin-5-yl)oxy)-N-((6-((((1r,4r)-4-hydroxy-4-methylcyclohexyl)methyl)amino)-5-nitropyridin-3-yl)sulfonyl)-4-(2-((R)-2-(2-isopropylphenyl)-4-((2-methoxy-6-(methylthio)pyridin-4-yl)methyl)piperazin-1-yl)-7-azaspiro[3.5]nonan-7-yl)benzamide]	1	1	–
CCOc1cc(CN2CCN(C3CC4(CCN(c5ccc(C(=O)NS(=O)(=O)c6cnc(NC[C@H]7CC[C@](C)(O)CC7)c([N+](=O)[O-])c6)c(Oc6cc7c(F)c[nH]c7nc6OC)c5)CC4)C3)[C@H](c3ccccc3C(C)C)C2)ccn1 [Example 65, 4-(2-((R)-4-((2-ethoxypyridin-4-yl)methyl)-2-(2-isopropylphenyl)piperazin-1-yl)-7-azaspiro[3.5]nonan-7-yl)-2-((3-fluoro-6-methoxy-1H-pyrrolo[2,3-b]pyridin-5-yl)oxy)-N-((6-((((1r,4r)-4-hydroxy-4-methylcyclohexyl)methyl)amino)-5-nitropyridin-3-yl)sulfonyl)benzamide]	1	1	–
COc1ccc(CN2CCN(C3CC4(CCN(c5ccc(C(=O)NS(=O)(=O)c6cnc(NC[C@H]7CC[C@](C)(O)CC7)c([N+](=O)[O-])c6)c(Oc6cnc7[nH]ccc7c6)c5)CC4)C3)[C@H](c3ccccc3C(C)C)C2)c2cc(C)oc12 [Example 66, 2-((1H-pyrrolo[2,3-b]pyridin-5-yl)oxy)-N-((6-((((1r,4r)-4-hydroxy-4-methylcyclohexyl)methyl)amino)-5-nitropyridin-3-yl)sulfonyl)-4-(2-((R)-2-(2-isopropylphenyl)-4-((7-methoxy-2-methylbenzofuran-4-yl)methyl)piperazin-1-yl)-7-azaspiro[3.5]nonan-7-yl)benzamide]	1	1	–
COc1nc2[nH]cc(F)c2cc1Oc1cc(N2CCC3(CC2)CC(N2CCN(Cc4ccnc(OC(F)F)c4)C[C@H]2c2ccccc2C(C)C)C3)ccc1C(=O)NS(=O)(=O)c1cnc(NC[C@H]2CC[C@](C)(O)CC2)c([N+](=O)[O-])c1 [Example 67, 4-(2-((R)-4-((2-(difluoromethoxy)pyridin-4-yl)methyl)-2-(2-isopropylphenyl)piperazin-1-yl)-7-azaspiro[3.5]nonan-7-yl)-2-((3-fluoro-6-methoxy-1H-pyrrolo[2,3-b]pyridin-5-yl)oxy)-N-((6-((((1r,4r)-4-hydroxy-4-methylcyclohexyl)methyl)amino)-5-nitropyridin-3-yl)sulfonyl)benzamide]	1	1	–
